According to patent US8822754B2, “Ecdysone receptor-based inducible gene expression system” (Intrexon Corporation, priority 2000, dated 2014):

Legend:
GAL4EcR + VP16USP = test: Transactivation of reporter genes through switch 1.2 in CHO cells; assay type: cell-based, Choristoneura fumiferana; conditions: switch 1.2 GAL4EcR + VP16USP, pGAL4RELuc
Method: This construct was prepared in the same way as in switch 1.1 above except MmRXRDEF was replaced with the D, E and F domains from spruce budworm USP (“CfUSPDEF”; SEQ ID NO: 58). The constructs used in this example are similar to those disclosed in U.S. Pat. No. 5,880,333 except that Choristoneura fumiferana USP rather than Drosophila melanogaster USP was utilized.
(§1) The cells were harvested and reporter activity was assayed.
(§2) Cells were harvested 24-48 hr after adding ligands. […] Twenty μl of lysate was assayed.

CfEcR = test: Comparison of switches in the mammalian cell lines tested (Tables 1-4); assay type: cell-based, Choristoneura fumiferana; conditions: see Tables 1-4
Method: Several commercially available lipofactors as well as electroporation methods were evaluated and the best conditions for transfection of each cell line were developed. CHO, NIH3T3, 293 and CV1 cells were grown to 60% confluency. DNAs corresponding, to the various switch constructs outlined in Examples 1.1 through 1.10 were transfected into CHO cells, NIH3T3 cells, 293 cells, or CV1 cells as follows.
as §2

GAL4RXR + VP16CfEcR [1] = test: Transactivation of reporter genes through switch 1.3 in CV1 cells; assay type: cell-based, Choristoneura fumiferana; conditions: switch 1.3 GAL4RXR + VP16CfEcR, pGAL4RELuc
Method: (§3) The same procedures described for NIH3T3 cells were followed for CV1 cells
as §2

GAL4CfEcRVP16 = test: Transactivation of reporter genes through switch 1.6 in CHO cells; assay type: cell-based, Choristoneura fumiferana; conditions: switch 1.6 GAL4CfEcRVP16, pGAL4RELuc
Method: This construct was prepared so that both the GAL4 DNABD and the VP16AD were placed on the same molecule. GAL4DNABD (SEQ ID NO: 41) and VP16AD (SEQ ID NO: 45) were fused to CfEcRDEF (SEQ ID NO: 3) at N- and C-termini respectively.
as §1, §2

GAL4RXR + VP16CfEcR [2] = test: Transactivation of reporter genes through switch 1.3 in 3T3 cells
Excerpt: In various cellular backgrounds, including mammalian cells, insect ecdysone receptor (EcR) heterodimerizes with retinoid X receptor (RXR) and, upon binding of ligand, transactivates genes under the control of ecdysone response elements. Applicants constructed several EcR-based gene expression cassettes based on the spruce budworm Choristoneura fumiferana EcR (“CfEcR”; full length polynucleotide and amino acid sequences are set forth in SEQ ID NO: 49 and SEQ ID NO: 50, respectively), C. fumiferana ultraspiracle (“CfUSP”; full length polynucleotide and amino acid sequences are set forth in SEQ ID NO: 51 and SEQ ID NO: 52, respectively), and mouse Mus musculus RXRα (MmRXRα; full length polynucleotide and amino acid sequences are set forth in SEQ ID NO: 53 and SEQ ID NO: 54, respectively). The prepared receptor constructs comprise a ligand binding domain of EcR and of RXR or of USP; a DNA binding domain of GAL4 or of EcR; and an activation domain of VP16. The reporter constructs include a reporter gene, luciferase or LacZ, operably linked to a synthetic promoter construct that comprises either GAL4 or EcR/USP binding sites (response elements). Various combinations of these receptor and reporter constructs were cotransfected into CHO, NIH3T3, CV1 and 293 cells. […] Reporter gene expression activities were assayed at 24 hr or 48 hr after ligand addition.
MmRXRDEF (SEQ ID NO: 22) was fused to a GAL4DNABD (SEQ ID NO: 41) and CfEcRCDEF (SEQ ID NO: 1) was fused to a VP16AD (SEQ ED NO: 45).
The same procedures described for CHO cells were followed for 3T3 cells as well with two modifications. The cells were plated when they reached 50% confluency. 125,000 or 50,000 or 25,000 cells were plated per well of 6- or 12- or 24-well plates respectively. The GAl4EcR/VP16RXR and reporter vector DNAs were transfected into NIH3T3 cells, the transfected cells were grown in medium containing PonA, MurA, N-(2-ethyl-3-methoxybenzoyl)-N′-(3,5-dimethylbenzoyl)-N′-t-butylhydrazine, or N-(3,4-(1,2-ethylenedioxy)-2-methylbenzoyl)-N′-(3,5-dimethylbenzoyl)-N′-tert-butylhydrazine for 48 hr. The ligand treatments were performed as described in the CHO cell section above.
Cells were harvested 24-48 hr after adding ligands. 125, 250, or 500 μl of passive lysis buffer (part of Dual-luciferase™ reporter assay system from Promega Corporation) were added to each well of 24- or 12- or […] respectively. The plates were placed on a rotary shaker for 15 min. Twenty μl of lysate was assayed. Luciferase activity was measured using Dual-luciferase™ reporter assay system from Promega Corporation following the manufacturer's instructions. β-Galactosidase was measured using Galacto-Star™ assay kit from TROPIX following the manufacturer's instructions. All luciferase and β-galactosidase activities were normalized using Renilla luciferase as a standard. Fold activities were calculated by dividing normalized relative light units (“RLU”) in ligand treated cells with normalized RLU in DMSO treated cells (untreated control).

CfVgRXR + MmRXR = test: Transactivation of reporter genes through switch 1.9 in CV1 cells; assay type: cell-based, Choristoneura fumiferana; conditions: switch 1.9 CfVgRXR + MmRXR, pIND(SP1)LacZ
Method: This example was prepared in the same way as switch 1.8 except DinEcR was replaced with a truncated CfEcR comprising a partial A/B domain and the complete CDEF domains [SEQ ID NO: 62 (polynucleotide) and SEQ ID NO: 63 (polypeptide)].
as §3, §2

GAL4USP + VP16CfEcR = test: Transactivation of reporter genes through switch 1.5 in CHO cells; assay type: cell-based, Choristoneura fumiferana; conditions: switch 1.5 GAL4USP + VP16CfEcR, pGAL4RELuc
Method: This construct was prepared in the same way as switch 1.3 except MmRXRDEF was replaced with CfUSPDEF (SEQ ID NO: 58).
as §1, §2

VP16CfEcR = test: Transactivation of reporter genes through switch 1.7 in CV1 cells; assay type: cell-based, Choristoneura fumiferana; conditions: switch 1.7 VP16CfEcR, pEcRELuc
Method: Six ecdysone response elements (“EcRE”; SEQ ID NO: 59) from the hsp27 gene were placed upstream of the promoter and a luciferase gene (SEQ ID NO: 57). This switch most probably uses endogenous RXR.
as §3, §2

## CCc1c(OC)cccc1C(=O)NN(C(=O)c1cc(C)cc(C)c1)C(C)(C)C [N-(2-ethyl-3-methoxybenzoyl)-N′-(3,5-dimethylbenzoyl)-N′-tert-butylhydrazine]
GAL4EcR + VP16USP
  Mean Fold Activation with 50 μM N-(2-ethyl-3-methoxybenzoyl)-N′-(3,5-dimethylbenzoyl)-N′-t-butylhydrazine: 2 fold
CfEcR
  potency as activators of CfEcR as compared to DmEcR: more potent activators of CfEcR
GAL4RXR + VP16CfEcR [1]
  Mean Fold Activation Through N-(2-ethyl-3-methoxybenzoyl)-N′-(3,5-dimethylbenzoyl)-N′-t-butylhydrazine: 25 fold
GAL4CfEcRVP16
  Mean Fold Activation with 50 μM N-(2-ethyl-3-methoxybenzoyl)-N′-(3,5-dimethylbenzoyl)-N′-t-butylhydrazine: 9 fold
GAL4RXR + VP16CfEcR [2]; GAL4MmRXRDEF/VP16CfEcRCDEF (switch 1.3), 1.0 μM ligand
  Mean Fold Induction at 1.0 μM Concentration: 71 fold
GAL4RXR + VP16CfEcR [2]; switch 1.3 GAL4RXR + VP16CfEcR, pGAL4RELuc
  Mean Fold Activation Through N-(2-ethyl-3-methoxybenzoyl)-N′-(3,5-dimethylbenzoyl)-N′-t-butylhydrazine: 47 fold
CfVgRXR + MmRXR
  Mean Fold Activation Through N-(2-ethyl-3-methoxybenzoyl)-N′-(3,5-dimethylbenzoyl)-N′-t-butylhydrazine: 7 fold
GAL4USP + VP16CfEcR
  Mean Fold Activation with 50 μM N-(2-ethyl-3-methoxybenzoyl)-N′-(3,5-dimethylbenzoyl)-N′-t-butylhydrazine: 2 fold
VP16CfEcR
  Mean Fold Activation Through N-(2-ethyl-3-methoxybenzoyl)-N′-(3,5-dimethylbenzoyl)-N′-t-butylhydrazine: 1 fold
